The test system of this assay is P388 leukemia ip, CD2F1 mice, survival T/C. Briefly: NCI In Vivo Anticancer Drug Screen. Data for tumor model P388 Leukemia (intraperitoneal) in CD2F1 (CDF1) mice. The conditions noted are these: endpoint: median survival time, higher = longer survival. The method, boiled down:
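Mice carrying the transplanted tumor received test compound or vehicle. Survival was recorded in each group, and the value is the treated-group measurement divided by that of the vehicle-treated control group.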

The mark [1] stands for this setting: dose: 50.0 mg/kg/injection, schedule: Q01DX009 (ip), vehicle: saline with Tween-80.
[2] abbreviates: dose: 100.0 mg/kg/injection, schedule: Q01DX009 (ip), vehicle: saline with Tween-80.
Where [3] appears, read: dose: 200.0 mg/kg/injection, schedule: Q01DX009 (ip), vehicle: saline with Tween-80.
The mark [4] stands for this setting: dose: 50.0 mg/kg/injection, schedule: Q01DX005 (ip), vehicle: Klucel (hydroxypropylcellulose) (HPC).
Setting [5] is: dose: 100.0 mg/kg/injection, schedule: Q04DX002 (ip), vehicle: saline with Tween-80.
[6] abbreviates: dose: 200.0 mg/kg/injection, schedule: Q04DX002 (ip), vehicle: saline with Tween-80.
The mark [7] stands for this setting: dose: 400.0 mg/kg/injection, schedule: Q04DX002 (ip), vehicle: saline with Tween-80.
Setting [8] is: dose: 25.0 mg/kg/injection, schedule: Q01DX009 (ip), vehicle: saline with Tween-80.
The mark [9] stands for this setting: dose: 12.5 mg/kg/injection, schedule: Q01DX009 (ip), vehicle: other.
[10] abbreviates: dose: 50.0 mg/kg/injection, schedule: Q01DX009 (ip), vehicle: other.
[11] abbreviates: dose: 50.0 mg/kg/injection, schedule: Q04DX003 (ip), vehicle: other.
Setting [12] is: dose: 100.0 mg/kg/injection, schedule: Q04DX003 (ip), vehicle: other.

Values joined by “and” are separate entries in the source; they are usually repeats but may differ in a detail not shown here. Identical values can stand only once. Inconclusive results and toxic doses are left out.

Turning to `O=[N+]([O-])c1ccc(S(=O)(=O)/N=C/c2ccccc2)cc1`, the T/C under setting [1] is 96 % of control, the T/C under setting [2] is 98 % of control and the T/C under setting [3] was 95 % of control.

Regarding `C(=Nc1ccccc1)C1=C(Nc2ccccc2)CCC1`, the T/C runs as follows: under setting [4], 100 % of control; (dose: 100.0 mg/kg/injection, schedule: Q01DX005 (ip), vehicle: Klucel (hydroxypropylcellulose) (HPC)) 100 % of control; (dose: 200.0 mg/kg/injection, schedule: Q01DX005 (ip), vehicle: Klucel (hydroxypropylcellulose) (HPC)) 106 % of control.

On to `COc1ccc(CN(CCCCCCN(Cc2ccc(OC)cc2)CC23CC4CC(CC(C4)C2)C3)CC23CC4CC(CC(C4)C2)C3)cc1`, for which the T/C under setting [5] is 98 % of control, the T/C under setting [6] was 94 % of control and the T/C under setting [7] was 94 % of control.

Turning to `CC(C)(C)OC(=O)O/N=C(\C#N)c1ccccc1`, the T/C is, setting by setting: (dose: 12.5 mg/kg/injection, schedule: Q01DX009 (ip), vehicle: saline with Tween-80) 90 % of control; under setting [8], 104 % of control; under setting [1], 100 % of control and 103 % of control; under setting [3], 100 % of control.

With `O=C(Nc1ccc(N=Nc2ccc(S(=O)(=O)O)cc2)cc1)c1ccc(N=Nc2c(S(=O)(=O)O)cc(O)c3c(NC(=O)c4ccccc4)cc(S(=O)(=O)O)cc23)cc1`, the T/C (dose: 50.0 mg/kg/injection, schedule: Q01DX005 (ip), vehicle: saline with Tween-80) is 95 % of control; the T/C (dose: 100.0 mg/kg/injection, schedule: Q01DX005 (ip), vehicle: saline with Tween-80) is 93 % of control; the T/C (dose: 200.0 mg/kg/injection, schedule: Q01DX005 (ip), vehicle: saline with Tween-80) was 95 % of control.

Take `O=C(/C=C/c1ccccc1[N+](=O)[O-])c1ccccc1`: the T/C was 99 % of control (dose: 50.0 mg/kg/injection, schedule: Q04DX003 (ip), vehicle: saline with Tween-80); 101 % of control (dose: 100.0 mg/kg/injection, schedule: Q04DX003 (ip), vehicle: saline with Tween-80); 101 % of control (dose: 200.0 mg/kg/injection, schedule: Q04DX003 (ip), vehicle: saline with Tween-80); 108 % of control (dose: 400.0 mg/kg/injection, schedule: Q04DX003 (ip), vehicle: saline with Tween-80).

For the compound `CCOC(=O)NNc1nc(-c2ccccc2)nc2nonc12`, the T/C was 91 % of control under setting [8] and 110 % of control under setting [2].

Turning to `Cc1ccc(S(=O)(=O)C2CC(=O)N(c3ccc(F)c(Cl)c3)C2=O)cc1` (stereo not given), the T/C reads like this: under setting [5], 94 % of control; under setting [6], 94 % of control; under setting [7], 96 % of control.

For `CCC/C=c1/[nH]c(=O)/c(=C\c2ccc(OC)cc2)[nH]c1=O`, the T/C by setting is: (dose: 25.0 mg/kg/injection, schedule: Q01DX009 (ip), vehicle: Klucel (hydroxypropylcellulose) (HPC)) 101 % of control; (dose: 50.0 mg/kg/injection, schedule: Q01DX009 (ip), vehicle: Klucel (hydroxypropylcellulose) (HPC)) 96 % of control; (dose: 100.0 mg/kg/injection, schedule: Q01DX009 (ip), vehicle: Klucel (hydroxypropylcellulose) (HPC)) 102 % of control.

Turning to `CCCCCCCCCCSCC(CO)NC(=O)/C=C/c1c(C)[nH]c(=O)[nH]c1=O` (stereo not given), the T/C is 104 % of control (dose: 3.13 mg/kg/injection, schedule: Q01DX009 (ip), vehicle: distilled water + Tween-80); 112 % of control (dose: 6.25 mg/kg/injection, schedule: Q01DX009 (ip), vehicle: distilled water + Tween-80); 114 % of control and 117 % of control (dose: 6.25 mg/kg/injection, schedule: Q01DX009 (ip), vehicle: other); 110 % of control (dose: 12.5 mg/kg/injection, schedule: Q01DX009 (ip), vehicle: distilled water + Tween-80); 114 % of control and 115 % of control under setting [9]; 99 % of control and 110 % of control (dose: 25.0 mg/kg/injection, schedule: Q01DX009 (ip), vehicle: distilled water + Tween-80). The T/C is 106 % of control and 112 % of control (dose: 50.0 mg/kg/injection, schedule: Q01DX009 (ip), vehicle: distilled water + Tween-80); 93 % of control under setting [10]; 108 % of control (dose: 100.0 mg/kg/injection, schedule: Q01DX009 (ip), vehicle: distilled water + Tween-80); 155 % of control (dose: 100.0 mg/kg/injection, schedule: Q01DX009 (ip), vehicle: other).

Regarding `CCOC(=O)CC1NCCc2ccccc21` (stereo not given), the T/C reads like this: (dose: 25.0 mg/kg/injection, schedule: Q01DX005 (ip), vehicle: saline + alcohol) 103 % of control; (dose: 50.0 mg/kg/injection, schedule: Q01DX005 (ip), vehicle: saline + alcohol) 103 % of control; (dose: 100.0 mg/kg/injection, schedule: Q01DX005 (ip), vehicle: saline + alcohol) 103 % of control; (dose: 200.0 mg/kg/injection, schedule: Q01DX005 (ip), vehicle: saline + alcohol) 101 % of control.

As for `COC(=O)NC1C(C)OC(OC2C/C=C(/C)C3C=CC4C(OC5CC(OC6CC(O)C(OC7CC(O)C(OC)C(C)O7)C(C)O6)C(O)C(C)O5)C(C)CC(C)C4C3(C)/C(O)=C3\C(=O)OC4(CC(C)C(CO)=CC4/C=C\2C)C3=O)CC1(C)[N+](=O)[O-]` (stereo not given), under setting [4], the T/C is 118 % of control and 123 % of control.

Turning to `Cc1cc(N=[N+]=[N-])c2ccc(F)cc2n1`, the T/C was 94 % of control (dose: 60.0 mg/kg/injection, schedule: Q01DX005 (ip), vehicle: saline with Tween-80) and 92 % of control (dose: 120.0 mg/kg/injection, schedule: Q01DX005 (ip), vehicle: saline with Tween-80).

For `CN(C)C1C(O)C2Oc3c(cc(O)c4c3C(=O)c3cc5c(c(O)c3C4=O)CCC(C)(O)C5)C(C)(O2)C1O` (stereo not given), the T/C is 112 % of control (dose: 12.5 mg/kg/injection, schedule: Q04DX003 (ip), vehicle: other); 113 % of control (dose: 25.0 mg/kg/injection, schedule: Q04DX003 (ip), vehicle: other); 118 % of control under setting [11]; 122 % of control under setting [12].

Take `CC1COC(O)(C2OCOC(C3CC(=O)NC(=O)C3)C2O)C1C` (stereo not given): the T/C was 100 % of control (dose: 0.01 mg/kg/injection, schedule: Q01DX009 (ip), vehicle: distilled water + alcohol); 102 % of control (dose: 0.03 mg/kg/injection, schedule: Q01DX009 (ip), vehicle: distilled water + alcohol); 102 % of control (dose: 0.06 mg/kg/injection, schedule: Q01DX009 (ip), vehicle: distilled water + alcohol); 102 % of control (dose: 0.12 mg/kg/injection, schedule: Q01DX009 (ip), vehicle: distilled water + alcohol).

Consider `O=C(O)/C=N/NS(=O)(=O)c1cccc(S(=O)(=O)N/N=C/C(=O)O)c1`, for which, under “dose: 12.5 mg/kg/injection, schedule: Q01DX009 (ip), vehicle: water”, the T/C is 119 % of control.

Consider `COC(=O)[C@@H]1c2cc3c(c(O)c2[C@@H](OC)C[C@@]1(C)O)C(=O)c1c(O)cc2c(c1C3=O)OC1O[C@@]2(C)[C@H](O)[C@@H](N(C)C)[C@@H]1O`, for which the T/C was 110 % of control (dose: 6.25 mg/kg/injection, schedule: Q01DX010 (ip), vehicle: saline); 171 % of control under setting [9]; 156 % of control (dose: 12.5 mg/kg/injection, schedule: Q01DX009 (ip), vehicle: saline); 110 % of control (dose: 12.5 mg/kg/injection, schedule: Q01DX010 (ip), vehicle: saline); 176 % of control (dose: 25.0 mg/kg/injection, schedule: Q01DX009 (ip), vehicle: other); 159 % of control (dose: 25.0 mg/kg/injection, schedule: Q01DX009 (ip), vehicle: saline). The T/C is 120 % of control (dose: 25.0 mg/kg/injection, schedule: Q01DX010 (ip), vehicle: saline); 171 % of control under setting [10]; 98 % of control (dose: 50.0 mg/kg/injection, schedule: Q01DX009 (ip), vehicle: saline); 110 % of control (dose: 50.0 mg/kg/injection, schedule: Q01DX010 (ip), vehicle: saline); 153 % of control under setting [11]; 150 % of control (dose: 50.0 mg/kg/injection, schedule: Q04DX003 (ip), vehicle: saline). Moreover, the T/C reads like this: under setting [12], 158 % of control; (dose: 100.0 mg/kg/injection, schedule: Q04DX003 (ip), vehicle: saline) 150 % of control.

In the case of `C=CCC(C(C)=O)C(C)=NCCN=C(C)C(CC=C)C(C)=O.[Cu]` (stereo not given), the T/C was 110 % of control (dose: 6.25 mg/kg/injection, schedule: Q01DX005 (ip), vehicle: saline with Tween-80) and 96 % of control (dose: 12.5 mg/kg/injection, schedule: Q01DX005 (ip), vehicle: saline with Tween-80).

The values are drawn from PubChem BioAssay AID330 (DTP/NCI, 2004).
